# Entries after “also recorded” stand apart in the source; their conditions may differ.
# Legend:
# [1] = precipitation of small molecules under acid-mediated amyloidogenic conditions in the absence of TTR; assay type: physicochemical; conditions: 3.6 μM, pH 4.4, 37° C., 72 h
# Protocol: (§1) TTR amyloid inhibition efficacy was probed using a stagnant fibril formation assay described previously, wherein partial denaturation was triggered by acidification (pH 4.4, 37° C.) (Colon, W.; Kelly, J. W. Biochemistry 1992, 31, 8654-8660). Briefly, a test compound (7.2 or 3.6 μM) is incubated with TTR (3.6 μM) for 30 min in pH 7 buffer. Amyloidogenesis is then initiated by lowering to pH 4.4, where maximal fibril formation is observed with WT-TTR after 72 h (37° C.). […] From experience we know that excellent inhibitors allow <10% fibril formation at a small molecule concentration of 7.2 μM and <40% fibril formation at a concentration equal to that of WT-TTR (3.6 μM) (Hammarstrom, P.; et al. Science 2003, 299, 713-716; Klabunde, T.; et al. Nature Struct. Biol. 2000, 7, 312-321; Razavi, H.; et al. Angew Chem 2003, 42, 2758-2761; Miroy, G. J.; et al. Proc. Natl. Acad. Sci. USA 1996, 93, 15051-15056; Peterson, S. A.; et al. Proc. Natl. Acad. Sci. USA 1998, 95, 12956-12960; Baures, P. W.; et al. Bioorg. Med. Chem. 1998, 6, 1389-1401; Baures, P. W.; et al. Bioorg. Med. Chem. 1999, 7, 1339-1347; Petrassi, H. M.; et al. J. Am. Chem. Soc. 2000, 122, 2178-2192; McCammon, M. G.; et al. Structure 2002, 10, 851-863; Oza, V. B.; et al. J. Med. Chem. 2002, 45, 321-332; Saccheftini, J. C.; et al. Nature Rev. Drug Disc. 2002, 1, 267-275; Green, N. S.; et al. J. Am. Chem. Soc. 2003, 125, 13404-13414; Adamski-Werner, S. L.; et al. J. Med. Chem. 2004, 47, 355-374; Miller Sean, R.; et al. Lab. Inv. 2004, 84, 545-552). […] Therefore, when both the ligand and TTR are at equal concentrations, a population of TTR•I, TTR•I2 and unliganded TTR is observed, dictated by the dissociation constants. It is now established by other studies that inhibitor occupancy of only one of the two TTR binding sites is sufficient to stabilize the entire tetramer against amyloidogenesis (Wiseman, R. L.; et al. J. Am. Chem. Soc. 2005, in press). This is further supported by the observation herein that twenty-six of these dibenzofurans are excellent TTR amyloidogenesis inhibitors (<40% fibril formation) at a concentration equal to that of TTR (3.6 μM each, FIG. 3).
# [2] = biological target: T1, WT-TTR (Homo sapiens, UniProt P02766); experiment: time course analysis of WT-TTR fibril formation inhibition; assay type: biochemical; conditions: inhibitor 7.2 and 3.6 μM, WT-TTR 3.6 μM, pH 4.4, turbidity at 500 nm
# T1 construct: made in house
# Protocol: Time course analysis of WT-TTR fibril formation inhibition by compounds 25, 47, and 64. Compounds 25, 47, and 64 were dissolved in DMSO to provide 7.2 mM primary stock solutions (10× stocks), from which 5- and 10-fold DMSO dilutions yielded 1.44 mM (2×) and 0.72 mM (1×) secondary stock solutions, respectively. 495 μL of 0.4 mg/mL (7.2 μM) WT-TTR solution (10 mM sodium phosphate, 100 mM KCl, and 1 mM EDTA, pH 7.2), and 5 μL of either the 1.44 or 0.72 mM inhibitor secondary stock solutions were added to disposable UV cuvettes, vortexed briefly, then incubated for 30 min at 25° C. The pH was then adjusted to 4.4 with addition of 500 μL of acidic buffer (100 mM acetate, 100 mM KCl, 1 mM EDTA, pH 4.2), and the final 1 mL solutions were vortexed again and incubated in the dark at 37° C. without agitation. At 0, 4, 8, 12, 25, 49, 74, 100, 122, 145, and 169 h time points after acidification, the solutions were vortexed and the turbidity at 500 nm was measured. Control samples containing 5 μL of pure DMSO were prepared and analyzed as above for comparison. Small molecule and TTR control samples were prepared in groups of 10 to prevent disturbance of the cuvettes during incubation. Samples were discarded after their turbidities were measured.
# FIG. 10 is a plot of the timecourse analysis of WT-TTR (3.6 μM) fibril formation mediated by partial acid denaturation in the absence (▴) and presence of 7.2 μM (⋄) and 3.6 μM (◯) inhibitors 25, 47, and 64, as measured by turbidity at 500 nm (see color scheme within Figure to differentiate inhibitors). It is hard to discern which compound is most efficacious in the black and white plot.
# [3] = biological target: T2, WT-TTR tetramer (Homo sapiens, UniProt P02766); experiment: time course analysis of WT-TTR tetramer dissociation by linked monomer unfolding in urea; assay type: biochemical; conditions: for rate of TTR tetramer dissociation in 6M urea: inhibitor 7.2 and 3.6 μM, TTR 3.6 μM, far-UV CD
# T2 construct: made in house
# From the text: The ability of these inhibitors to impose kinetic stability on tetrameric TTR is best evaluated by assessing the rate of TTR tetramer dissociation (Hammarstrom, P.; et al. Science 2003, 299, 713-716; Hammarstrom, P.; et al. Proc. Natl. Acad. Sci. USA 2002, 99, 16427-16432). Under acidic conditions tetramer dissociation leads to amyloidogenesis, whereas in the presence of chaotropes (6M urea), tetramer dissociation leads to monomer unfolding. The influence of inhibitors 25, 47 and 64, representing the three structural classes of dibenzofuran-based inhibitors, on the rates of tetramer dissociation under acid- and urea-mediated denaturing conditions was probed. […] The rate of TTR tetramer dissociation in 6M urea is easily monitored by linking the slow quaternary structural changes to rapid tertiary structural changes that are easily monitored by spectroscopic methods (Hammarstrom, P.; et al. Proc. Natl. Acad. Sci. USA 2002, 99, 16427-16432).
# Time course analysis of WT-TTR tetramer dissociation inhibition by compounds 25, 47, and 64 evaluated by linked-monomer unfolding in urea. Compounds 25, 47, and 64 were dissolved in DMSO to provide 10 mM primary stock solutions, from which 10-fold EtOH dilutions yielded 1 mM secondary stock solutions. 200 μL of 1.0 mg/mL (18 μM) WT-TTR solution (50 mM sodium phosphate, 100 mM KCl, and 1 mM EDTA, pH 7.2), and either 7.2 or 3.6 μL (2× and 1×, respectively) of 1 mM inhibitor secondary stock solutions were added to 2 mL eppendorf tubes, vortexed briefly, and incubated for 15 min at 25° C. 100 μL of the TTR•inhibitor solutions were added to 900 μL of urea buffer (6.67 M urea, 50 mM sodium phosphate, 100 mM KCl, 1 mM EDTA, pH 7.2), and the final 1 mL solutions were vortexed again and incubated in the dark at 25° C. without agitation. At 0, 4, 11, 24, 49, 73, 97, 122, 146, and 170 h time points after mixing with urea, the circular dichroism spectra were measured between […], with scanning every 0.5 nm and averaging for 5 s. […] Control samples containing 7.2 μL of 10% DMSO in EtOH were prepared and analyzed as above for comparison. […] TTR tetramer dissociation is linked to the rapid (˜500,000× faster) monomer denaturation as measured through this β-sheet loss (Hammarstrom, P.; et al. Proc. Natl. Acad. Sci. USA 2002, 99, 16427-16432).
# FIG. 11 is a plot of the timecourse analysis of WT-TTR (3.6 μM) tetramer dissociation (6.0 M urea) in the absence (▴) and presence of 7.2 μM (⋄) and 3.6 μM (◯) concentrations of inhibitors 25, 47, and 64 (see color scheme within Figure to differentiate inhibitors). Slow tetramer dissociation is not detectable by far-UV CD spectroscopy, but this process is linked to rapid (˜500,000× faster) monomer denaturation as monitored by loss of β-sheet content easily followed by circular dichroism spectroscopy. […]
# [4] = biological target: T3, TTR in human blood plasma (Homo sapiens, UniProt P02766); experiment: plasma TTR binding selectivity, antibody capture method; conditions: inhibitor 10.8 μM, 24 h, 37° C.
# T3 construct: from tissue; host or cells: human blood plasma
# Protocol: Inhibitor binding selectivity to TTR in human blood plasma was assessed using a previously established antibody capture method (Purkey, H. E.; et al. Proc. Natl. Acad. Sci. USA 2001, 98, 5566-5571). In this evaluation, inhibitors (10.8 μM, ˜2-3× the natural concentration of TTR) are incubated in human blood plasma for 24 h at 37° C. Quenched sepharose resin is then added to the plasma to remove any small molecules that would bind to the resin as opposed to TTR. TTR and any TTR-bound small molecule is then immunocaptured using a polyclonal TTR antibody covalently attached to sepharose resin. After washing the resin (5×10 min washes), the antibody-TTR complex is dissociated at high pH and analyzed by RP-HPLC. The relative stoichiometry between TTR and inhibitor is then calculated from their HPLC peak areas using standard curves.
# (§2) The procedures used for bacterial expression of TTR (Lai, Z.; et al. Biochemistry 1996, 35, 6470-6482), the stagnant fibril formation assay (Colon, W.; Kelly, J. W. Biochemistry 1992, 31, 8654-8660; Lai, Z.; et al. Biochemistry 1996, 35, 6470-6482), the blood plasma binding selectivity assay (Purkey, H. E.; et al. Proc. Natl. Acad. Sci. USA 2001, 98, 5566-5571), and analytical ultracentrifugation (Lashuel, H. A.; et al. Biochemistry 1998, 37, 17851-17864) have all been described in detail previously.
# [5] = biological target: T1, WT-TTR; experiment: stagnant acid-mediated fibril formation assay (turbidity); assay type: biochemical; conditions: WT-TTR 3.6 μM; for inhibitor potency against fibril formation: inhibitor 3.6 μM, pH 4.4, 72 h
# Protocol: as §1, §2
Structure (SMILES),precipitation in the absence of TTR [1],inhibitor potency against fibril formation [5],also measured
O=C(O)c1cccc2c1oc1c(C(=O)O)ccc(Nc3ccccc3C(F)(F)F)c12 [Compound 25],no measurable precipitation,–,"rate of TTR amyloidogenesis mediated by partial acidification relative to control [2]: dramatically slowed in a dose-dependent fashion; order of effect on tetramer dissociation at the end of the time course ([3]; after 169 hours, 6.0 M urea, FIG. 11): most effective in dissociating tetramers; rate of TTR tetramer dissociation in 6M urea [3]: markedly slowed in a dose-dependent fashion"
O=C(O)c1cccc2c1oc1c(C(=O)O)ccc(Nc3cccc(C(F)(F)F)c3)c12 [Compound 26],no measurable precipitation,–,–
O=C(O)c1cccc2c1oc1c(C(=O)O)ccc(Nc3cc(Cl)cc(Cl)c3)c12 [Compound 30],no measurable precipitation,–,–
O=C(O)c1cccc2c1oc1c(C(=O)O)ccc(Nc3cc(C(F)(F)F)cc(C(F)(F)F)c3)c12 [Compound 31],–,–,binding selectivity to TTR in human blood plasma [4]: all but two (31 and 35) exhibit dramatically increased binding selectivity
O=C(O)c1cccc(Nc2ccc(C(=O)O)c3oc4c(C(=O)O)cccc4c23)c1 [Compound 33],–,amongst the most potent,binding selectivity to TTR in human blood plasma [4]: modest
O=C(O)c1cc(Nc2ccc(C(=O)O)c3oc4c(C(=O)O)cccc4c23)cc(C(=O)O)c1 [Compound 34],–,all the inhibitors (except 34) display increased potency,"inhibition of WT-TTR fibril formation ([5]; inhibitor 7.2 μM, pH 4.4, 37° C., 72 h): not as effective; also recorded: all but one (34) completely inhibit fibril formation"
O=C(O)c1ccc(Nc2ccc(C(=O)O)c3oc4c(C(=O)O)cccc4c23)cc1 [Compound 35],–,–,binding selectivity to TTR in human blood plasma [4]: all but two (31 and 35) exhibit dramatically increased binding selectivity
O=C(O)c1cccc2c1oc1c(C(=O)O)ccc(Nc3ccccc3F)c12 [Compound 36],–,most potent,–
O=C(O)c1cccc2c1oc1c(C(=O)O)ccc(Oc3cccc(C(F)(F)F)c3)c12 [Compound 45],no measurable precipitation,–,–
O=C(O)c1cccc2c1oc1c(C(=O)O)ccc(-c3cc(F)cc(F)c3)c12 [Compound 62],no measurable precipitation,–,–
O=C(O)c1cccc2c1oc1c(C(=O)O)ccc(-c3cc(Cl)cc(Cl)c3)c12 [Compound 63],–,most potent,–
O=C(O)c1cccc2c1oc1c(C(=O)O)ccc(-c3cc(C(F)(F)F)cc(C(F)(F)F)c3)c12 [Compound 64],–,–,rate of TTR amyloidogenesis mediated by partial acidification relative to control [2]: dramatically slowed in a dose-dependent fashion; rate of TTR tetramer dissociation in 6M urea [3]: markedly slowed in a dose-dependent fashion
O=C(O)c1cccc2c1oc1c(C(=O)O)ccc(-c3ccccc3F)c12 [Compound 67],–,most potent,–
O=C(O)c1cccc(-c2ccc(C(=O)O)c3oc4c(C(=O)O)cccc4c23)c1 [Compound 69],–,amongst the most potent,binding selectivity to TTR in human blood plasma [4]: modest

# Reference: patent publication US20050261365A1, “Transthyretin stabilization” (The Scripps Research Institute, priority 2004, published 2005)
